From PubChem BioAssay AID1963985 (Molecular Pharmacology Branch, DTP, NCI, 2024)

Tested on: 252836-082-R-J2-PDC tumor spheroids, viability
Test: Anticancer human tumor 252836-082-R-J2-PDC patient-derived head and neck squamous cell carcinoma cell line growth inhibition [PI3K]
Details: spheroids with HUVEC and MSC; for IC50: curve of first compound; for viability, T/C: stronger effect = lower value
Method in brief: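 Tumor cells grown as multi-cell spheroids with HUVEC endothelial cells and MSC fibroblast-like stroma were treated with targeted agents combined with inavolisib, alpelisib, duvelisib or copanlisib. Doses fell in half-log steps from near clinical Cmax, else from 10 microM. Viability was measured.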

[1] = second compound 0.00316 µM, first compound 0.0316 µM
[2] = second compound 0.00316 µM, first compound 0.1 µM
[3] = second compound 0.00316 µM, first compound 0.316 µM
[4] = second compound 0.00316 µM, first compound 1 µM
[5] = second compound 0.01 µM, first compound 0.0316 µM
[6] = second compound 0.01 µM, first compound 0.1 µM
[7] = second compound 0.01 µM, first compound 0.316 µM
[8] = second compound 0.01 µM, first compound 1 µM
[9] = second compound 0.0316 µM, first compound 0.0316 µM
[10] = second compound 0.0316 µM, first compound 0.1 µM
[11] = second compound 0.0316 µM, first compound 0.316 µM
[12] = second compound 0.0316 µM, first compound 1 µM
[13] = second compound 0.1 µM, first compound 0.0316 µM
[14] = second compound 0.1 µM, first compound 0.1 µM
[15] = second compound 0.1 µM, first compound 0.316 µM
[16] = second compound 0.1 µM, first compound 1 µM
[17] = second compound 0.316 µM, first compound 0.0316 µM
[18] = second compound 0.316 µM, first compound 0.1 µM
[19] = second compound 0.316 µM, first compound 0.316 µM
[20] = second compound 0.316 µM, first compound 1 µM
[21] = second compound 1 µM, first compound 0.0316 µM
[22] = second compound 1 µM, first compound 0.1 µM
[23] = second compound 1 µM, first compound 0.316 µM
[24] = second compound 1 µM, first compound 1 µM
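Note: spheroids exposed to agents for seven days before readout.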
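Throughout, for viability, T/C: percent of vehicle DMSO control viability so 100% = untreated growth.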

CCN1CCN(Cc2ccc(Nc3ncc(F)c(-c4cc(F)c5nc(C)n(C(C)C)c5c4)n3)nc2)CC1 + COc1c(OCCCN2CCOCC2)ccc2c3n(c(=NC(=O)c4cnc(N)nc4)nc12)CCN3
IC50 (second compound 0.00316 µM): > 1000 nM
IC50 (second compound 0.01 µM): > 1000 nM
IC50 (second compound 0.0316 µM): > 1000 nM
IC50 (second compound 0.1 µM): < 3.16 nM
IC50 (second compound 0.316 µM): < 3.16 nM
IC50 (second compound 1 µM): < 3.16 nM
viability, T/C (second compound 0.00316 µM, first compound 0.00316 µM): 86.4%
viability, T/C (second compound 0.00316 µM, first compound 0.01 µM): 80.1%
viability, T/C [1]: 97.1%
viability, T/C [2]: 85.4%
viability, T/C [3]: 91.6%
viability, T/C [4]: 82.6%
viability, T/C (second compound 0.01 µM, first compound 0.00316 µM): 75.8%
viability, T/C (second compound 0.01 µM, first compound 0.01 µM): 75.2%
viability, T/C [5]: 82.5%
viability, T/C [6]: 80.8%
viability, T/C [7]: 72.6%
viability, T/C [8]: 78%
viability, T/C (second compound 0.0316 µM, first compound 0.00316 µM): 56.2%
viability, T/C (second compound 0.0316 µM, first compound 0.01 µM): 59%
viability, T/C [9]: 55.4%
viability, T/C [10]: 57%
viability, T/C [11]: 55.5%
viability, T/C [12]: 47%
viability, T/C (second compound 0.1 µM, first compound 0.00316 µM): 34.6%
viability, T/C (second compound 0.1 µM, first compound 0.01 µM): 34.9%
viability, T/C [13]: 31.2%
viability, T/C [14]: 29.7%
viability, T/C [15]: 33.9%
viability, T/C [16]: 32.4%
viability, T/C (second compound 0.316 µM, first compound 0.00316 µM): 14.1%
viability, T/C (second compound 0.316 µM, first compound 0.01 µM): 15.2%
viability, T/C [17]: 12.4%
viability, T/C [18]: 13.1%
viability, T/C [19]: 17.7%
viability, T/C [20]: 14.9%
viability, T/C (second compound 1 µM, first compound 0.00316 µM): 4.92%
viability, T/C (second compound 1 µM, first compound 0.01 µM): 3.69%
viability, T/C [21]: 3.43%
viability, T/C [22]: 4.13%
viability, T/C [23]: 5.78%
viability, T/C [24]: 8.31%

Cn1ncc(Cl)c1-c1cc(C(=O)NC(CN)Cc2cccc(F)c2)sc1Cl (centres undefined) + COc1c(OCCCN2CCOCC2)ccc2c3n(c(=NC(=O)c4cnc(N)nc4)nc12)CCN3
IC50 (second compound 0.00316 µM): 781 nM
IC50 (second compound 0.01 µM): 416 nM
IC50 (second compound 0.0316 µM): 376 nM
IC50 (second compound 0.1 µM): < 31.6 nM
IC50 (second compound 0.316 µM): < 31.6 nM
IC50 (second compound 1 µM): < 31.6 nM
viability, T/C [1]: 88.6%
viability, T/C [2]: 79.1%
viability, T/C [3]: 60.2%
viability, T/C [4]: 45.7%
viability, T/C (second compound 0.00316 µM, first compound 3.16 µM): 32.3%
viability, T/C (second compound 0.00316 µM, first compound 10 µM): 11.2%
viability, T/C [5]: 71.8%
viability, T/C [6]: 67.8%
viability, T/C [7]: 50.6%
viability, T/C [8]: 40.1%
viability, T/C (second compound 0.01 µM, first compound 3.16 µM): 29%
viability, T/C (second compound 0.01 µM, first compound 10 µM): 18.4%
viability, T/C [9]: 59.1%
viability, T/C [10]: 68.6%
viability, T/C [11]: 50%
viability, T/C [12]: 34.5%
viability, T/C (second compound 0.0316 µM, first compound 3.16 µM): 23.1%
viability, T/C (second compound 0.0316 µM, first compound 10 µM): 11.7%
viability, T/C [13]: 40.8%
viability, T/C [14]: 36.4%
viability, T/C [15]: 37%
viability, T/C [16]: 26.4%
viability, T/C (second compound 0.1 µM, first compound 3.16 µM): 17.2%
viability, T/C (second compound 0.1 µM, first compound 10 µM): 9.98%
viability, T/C [17]: 21.1%
viability, T/C [18]: 13.9%
viability, T/C [19]: 14.8%
viability, T/C [20]: 14.2%
viability, T/C (second compound 0.316 µM, first compound 3.16 µM): 13%
viability, T/C (second compound 0.316 µM, first compound 10 µM): 7.08%
viability, T/C [21]: 4.42%
viability, T/C [22]: 4.98%
viability, T/C [23]: 4.84%
viability, T/C [24]: 6.71%
viability, T/C (second compound 1 µM, first compound 3.16 µM): 4.88%
viability, T/C (second compound 1 µM, first compound 10 µM): 1.6%
